Data from patent publication US20220273530A1, “BIOADHESIVE PARTICLES COMPRISING ACTIVE AGENTS, AND USES THEREOF” (SKINOSIVE, priority 2019, published 2022).

Assays:
[1] = cited from earlier work
[2] = λmax UV absorbance of free and encapsulated UV filter; assay type: physicochemical; conditions: free UV filter in ethanol
Procedure: λmax UV absorbance of free Uvinul A plus in ethanol was measured at 357 nm and λmax UV absorbance of Uvinul A plus encapsulated PLA-PEG-Mal particles in water was measured at 360 nm.

Structure (SMILES)	UV filter logP [1]	λmax UV absorbance of free UV filter [2] [nm]
CCCCC(CC)COc1ccc(-c2nc(-c3ccc(OC)cc3)nc(-c3ccc(OCC(CC)CCCC)cc3O)n2)c(O)c1 (centres unmarked) [Bemotrizinol, bis-ethylhexyloxyphenol methoxyphenyl triazine]	10.4	
CC1CCC(C(C)C)C(OC(=O)c2ccccc2N)C1 (centres unmarked) [Meradimate]	5.1	
CCCCC(CC)COC(=O)c1ccccc1O (centres unmarked) [Octisalate]	5.7	
CCCCC(CC)COC(=O)C(C#N)=C(c1ccccc1)c1ccccc1 (centres unmarked) [Octocrylene]	7.1	304
COc1cc(O)c(C(=O)c2ccccc2)cc1S(=O)(=O)O [Sulisobenzone]	2.2	
CCCCCCOC(=O)c1ccccc1C(=O)c1ccc(N(CC)CC)cc1O [Uvinul A Plus, diethylamino hydroxybenzoyl hexyl benzoate]	6.5	357
